The target in experiment [1] is T1, formylmethionine aminopeptidase prepared from rat liver (Rattus norvegicus, UniProt P13676).
T1 construct: Formylmethionineaminopeptidase employed is that prepared from rat liver; from tissue; host or cells: rat liver
T1 sequence (P13676 1-732): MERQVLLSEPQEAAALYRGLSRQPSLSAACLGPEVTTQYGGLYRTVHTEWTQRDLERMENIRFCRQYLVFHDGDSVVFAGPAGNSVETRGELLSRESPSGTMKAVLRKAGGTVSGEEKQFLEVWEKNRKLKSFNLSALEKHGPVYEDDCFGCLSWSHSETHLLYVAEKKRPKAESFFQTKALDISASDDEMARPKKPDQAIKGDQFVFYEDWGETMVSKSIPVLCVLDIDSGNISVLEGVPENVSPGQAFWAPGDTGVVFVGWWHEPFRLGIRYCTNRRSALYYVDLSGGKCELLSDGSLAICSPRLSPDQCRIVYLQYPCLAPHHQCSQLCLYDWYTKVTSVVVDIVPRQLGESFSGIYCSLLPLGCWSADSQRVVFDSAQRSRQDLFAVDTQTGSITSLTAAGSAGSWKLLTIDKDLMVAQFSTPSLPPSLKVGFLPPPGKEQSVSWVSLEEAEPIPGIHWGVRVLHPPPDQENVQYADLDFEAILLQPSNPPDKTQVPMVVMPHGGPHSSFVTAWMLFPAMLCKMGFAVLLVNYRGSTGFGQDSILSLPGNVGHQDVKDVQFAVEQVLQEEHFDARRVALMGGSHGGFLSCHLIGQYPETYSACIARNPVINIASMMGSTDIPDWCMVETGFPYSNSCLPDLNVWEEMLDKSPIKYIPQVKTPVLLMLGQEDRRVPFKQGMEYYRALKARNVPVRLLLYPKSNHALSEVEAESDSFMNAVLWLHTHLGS
Put plainly: Anti-formylmethionine aminopeptidase activity assay. It is filed as biochemical. The settings on record: rat liver enzyme, substrate N-formylmethionine β-naphthylamide, pH 7.8, 37° C., 25 minutes; read-out: ID50, dose giving 50% inhibition to formylmethionine aminopeptidase (converted). On the procedure: Further, assay of ebelactone for its anti-formylmethionineaminopeptidase can be made according to the following method. Thus, as the substrate solution is employed a solution of N-formylmethionine β-naphthylamide(as the substrate) in methanol containing 5% (w/v) of "Tween" 20 (a trade name of a non-ionic surface-active agent, a product of Atlas Powder Co., U.S.A.). Formylmethionineaminopeptidase employed is that prepared from rat liver. The substrate solution (0.005 ml), 0.5 ml of 0.1 M Tris-hydrochloric acid buffered solution (pH 7.8) and 0.495 ml of water containing an ebelactone sample to be assayed are mixed together to a total volume of […]. The reaction solution so obtained is further admixed with 0.05 ml of the enzyme solution, followed by effecting the enzymatic reaction at 37° C. for 25 minutes. […] After allowing to stand at ambient temperature for 15 minutes, absorbance (a) at 525 nm of the reaction solution is measured. On the other hand, adsorbance (b) at 525 nm of a control reaction solution obtained from the blank test is measured. Percent of inhibition to the formylmethionine aminopeptidase is calculated in a similar way to the above-mentioned method for determination of the potency for inhibition to esterase.

Experiment [2] has as its system CDF1 mice immunized with sheep red blood cells (SRBC). Put plainly: Delayed Type Hypersensitivity (D.T.H.) response to SRBC in mice (cell-mediated immunity). The settings on record: 24 hours after eliciting injection. It is filed as in vivo.
Experiment [3] concerns Wister rats, carragheenin-induced footpad swelling. Put plainly: Suppression of rat footpad swelling caused by carragheenin. It is filed as in vivo. On the procedure:
Tests were made to estimate the suppressive effect of ebelactone and esterastin (U.S. Pat. Nos. 4,189,438 and 4,242,453) on the swelling of rat footpad caused by injection of carragheenin when the test compounds were administered orally and intraperitoneally to the test animal, Wister rats (male, body weight:140 to 150 g). The test compound was dissolved in about 0.5 ml of ethanol with addition of one drop of a non-ionic surface-active agent "Tween" 80, and the test compound solution in ethanol was diluted with an aqueous gum arabi to prepare an aqueous suspension containing the test dose of ebelactone or esterastin. The test sample suspension so prepared was then administered orally or intraperitoneally to the rats. One hour later, 1% aqueous carragheenin was injected subcutaneously to the footpad to bring about inflammation. After the injection of carragheenin, the volume of the footpad was measured twice, namely at the end of 3 hours and at the end of 5 hours from the carragheenin injection. For control test, the ebelactone or esterastin was omitted in the above test. Degree (%) of suppression of swelling was calculated from the measured volumes of the inflammated footpad.

The target in experiment [4] is esterase preparation obtained from pig liver. Put plainly: Anti-esterase activity assay (modified Huggins and Lapides method). It is filed as biochemical. The settings on record: substrate p-nitrophenyl acetate, pH 7.0, room temperature, 20 minutes. On the procedure: Firstly, assay of ebelactone for its anti-esterase activity can be made by determining the potency to inhibit esterase according to a modification of the method of C. […] Thus, a commercially available esterase preparation obtained from pig liver (a product of Sigma Co., U.S.A.) is diluted with water to a 1000 folds volume, and the resulting esterase solution (0.025 ml) is admixed with 1 ml of 0.1 M phosphate buffered solution (pH 7.0) containing 0.06% "Triton X-100" (a trade name of an emulsifier consisting of a polyethyleneglycol alkylphenylether, a product of Rohm & Haas Co., U.S.A.) and 0.95 ml of water containing an ebelactone sample to be assayed, and the resulting mixed solution (1.975 ml) is admixed with 0.025 ml of a solution of 40 mM p-nitrophenyl acetate (the substrate) in methanol to start the reaction of p-nitrophenyl acetate with the esterase. After the enzymatic reaction is effected at room temperature for 20 minutes, absorbance (a) at 400 nm of the resulting reaction solution is measured. On the other hand, absorbance (b) at 400 nm of a control reaction solution containing no ebelactone is measured in the same way as above. Percent of inhibition to esterase is calculated according to the following equation:
Inhibition (%)=(b-a)/b×100

[5] abbreviates: intraperitoneal, 30 mg/kg, 3 Hours after carragheenin.
[6] abbreviates: intraperitoneal, 30 mg/kg, 5 Hours after carragheenin.
Setting [7] is: intraperitoneal, all dosages and all times, except 5 hours with 5 mg/kg and 3 hours with 10 mg/kg of ebelactone B.
Setting [8] is: oral, 50 mg/kg, 3 Hours after carragheenin.
Setting [9] is: oral, 50 mg/kg, 5 Hours after carragheenin.

The structures appear in SMILES notation. Values after ≈ are worked out from the molar mass of the structure shown.

Turning to `CCC(C)C(O)C(C)C(=O)C(C)C=C(C)CC(C)C1OC(=O)C1C` (stereo not drawn) [Ebelactone A, ebelactone A], in experiment [1], the IC50 is 236 nM. The same compound displayed a Foodpad thickness in experiment [2] (0.5 mg/kg oral, control 8.1) of 12.2 × 0.1 mm. Moreover, the “Degree (%) of suppression of inflammation” value (shortened to “Degree (%) … of inflammation”) is 45.9% in experiment [3] (setting [5]) and 18.5% in experiment [3] (setting [6]). Also, the “reduction in the degree of swelling as compared to the control test group” value in experiment [3] (setting [7]) is given as “significant reduction in the degree of swelling”. Also, the “ID50, dose giving 50% inhibition to esterase” value in experiment [4] was 0.056 µg/mL (≈ 0.165 µM).
Take `CCCCCC=CCC=CCC(CC1OC(=O)C1CCCCCC)OC(=O)C(CC(N)=O)NC(C)=O` (stereo not drawn) [Esterastin, esterastin, reference compound]: the “Degree (%) … of inflammation” value in experiment [3] (setting [5]) turned out to be 31.1%; in experiment [3] (setting [6]) it was 28.1%. In addition, the figures for the “Degree (%) of suppression of swelling” value in experiment [3] (setting [8]) and in experiment [3] (setting [9]) were 10.3% and -3.0%, respectively.
With `CCC(C)C(O)C(C)C(=O)C(C)C=C(C)CC(C)C1OC(=O)C1CC` (stereo not drawn) [Ebelactone B, ebelactone B], in experiment [1], the IC50 was 56.7 nM. Moreover, the Foodpad thickness came out at 14.1 × 0.1 mm in experiment [2] (0.5 mg/kg oral, control 8.1); 14.2 × 0.1 mm in experiment [2] (0.781 mg/kg intraperitoneal at immunization, control 7.4); 13.6 × 0.1 mm in experiment [2] (3.125 mg/kg intraperitoneal at immunization, control 7.4); 13.3 × 0.1 mm in experiment [2] (12.5 mg/kg intraperitoneal at immunization, control 7.4); 12.2 × 0.1 mm in experiment [2] (50 mg/kg intraperitoneal at immunization, control 7.4). Moreover, the “Degree (%) … of inflammation” value in experiment [3] (intraperitoneal, 5 mg/kg, 3 Hours after carragheenin) came out at 17.1%; in experiment [3] (intraperitoneal, 5 mg/kg, 5 Hours after carragheenin), 8.8%; in experiment [3] (intraperitoneal, 10 mg/kg, 3 Hours after carragheenin) it was 9.1%; in experiment [3] (intraperitoneal, 10 mg/kg, 5 Hours after carragheenin) it was 10.0%; in experiment [3] (setting [5]), 50.6%; in experiment [3] (setting [6]), 20.9%. Further, the “reduction in the degree of swelling as compared to the control test group” value in experiment [3] (setting [7]) was “significant reduction in the degree of swelling”; in experiment [3] (oral, 10 mg/kg, at 3 hours and 5 hours from carragheenin injection), “significant reduction in the degree of swelling”; in experiment [3] (oral, 50 mg/kg, at 3 hours from carragheenin injection), “significant reduction in the degree of swelling”; in experiment [3] (oral, 100 mg/kg, at 5 hours from carragheenin injection) it was “significant reduction in the degree of swelling”. For the same compound, the “Degree (%) of suppression of swelling” value in experiment [3] (oral, 10 mg/kg, 3 Hours after carragheenin) was determined as 11.2%; in experiment [3] (oral, 10 mg/kg, 5 Hours after carragheenin) it was 8.2%; in experiment [3] (setting [8]) it was 11.6%; in experiment [3] (setting [9]), 7.8%; in experiment [3] (oral, 100 mg/kg, 3 Hours after carragheenin) it was 7.0%; in experiment [3] (oral, 100 mg/kg, 5 Hours after carragheenin), 9.6%. Moreover, the “ID50, dose giving 50% inhibition to esterase” value in experiment [4] came to 0.00035 µg/mL (≈ 0.000993 µM).
